Seven compounds from PubChem BioAssay (NCI) can be followed below.

Common to all, as to test: inhibition of tumour cell growth, NCI panel, 48 h
For experiment [1], the system named is SR leukemia.
Experiment [2] relates to TK-10 renal.
For experiment [3], the system named is SK-MEL-2 melanoma.
Experiment [4] relates to PC-3 prostate.
The subject of experiment [5] is UACC-257 melanoma.
Experiment [6] concerns MDA-MB-231 breast.
The subject of experiment [7] is T-47D breast.
In experiment [8] the test system is A498 renal.
Experiment [9] concerns NCI-H460 lung.
Experiment [10] concerns OVCAR-4 ovarian.

Several values for one entry are separate records, joined by “and”; a condition that tells them apart may be missing. Identical values can stand only once.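 Each compound was tested at five concentrations against cells in 96-well plates for 48 hours. At the GI50, growth is halved. TGI denotes the concentration required for complete inhibition of growth.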

On to `CC(C)c1ccc(Nc2nccc(-c3cnn4ncccc34)n2)cc1`, for which the GI50 in experiment [1] is 0.234 µM; in [2], 0.59 µM; in [3], 0.411 µM; in experiment [4], 0.615 µM; in [5] it was 0.563 µM; in [6] it was 0.726 µM. Also, the GI50 was 0.469 µM in [7], 0.542 µM in experiment [8], 0.496 µM in experiment [9] and 0.604 µM in [10]. Moreover, the TGI in [1] is above 25 µM; in [2] it was 3.17 µM; in [3], 1.13 µM; in experiment [4], above 12.3 µM; in [5], 1.6 µM; in experiment [6], above 17.9 µM. Besides, the TGI in [7] was above 6.22 µM; in experiment [8], 1.48 µM; in experiment [9] it was 4.95 µM; in [10] it was 2.63 µM.
Regarding `CS(=O)(=O)Nc1ccc(N=Cc2c(O)[nH]c3ccccc23)cc1`, the GI50 in experiment [1], in experiment [2], in [3], in experiment [4], in [5] and in experiment [6] was above 25 µM throughout. Moreover, the GI50 in experiment [7], in experiment [8], in experiment [9] and in experiment [10] was above 25 µM in each case. The TGI in experiment [1], in experiment [2], in experiment [3], in [4], in experiment [5] and in experiment [6] was above 25 µM each time. In addition, the TGI in [7], in [8], in experiment [9] and in experiment [10] was above 25 µM each time.
On to `CCCCN(CCCC)c1ccc(C(=NC(C)CCCN(CC)CC)c2ccc(N(C)C)cc2)cc1` (configuration not stated), for which the GI50 is 0.708 µM in experiment [1]; 1.34 µM in experiment [2]; 0.814 µM in [3]; 0.885 µM in experiment [4]; 0.915 µM in [5]; 0.863 µM in experiment [6]. In addition, the GI50 was 0.809 µM in experiment [7], 0.789 µM in [8], 0.842 µM in [9] and 1.09 µM in experiment [10]. Further, the TGI in experiment [1] stood at 1.82 µM; in experiment [2], 3.99 µM; in experiment [3], 1.81 µM; in [4], 1.93 µM; in experiment [5], 1.83 µM; in experiment [6], 1.82 µM. Besides, the TGI was 1.89 µM in experiment [7], 2.39 µM in [8], 1.64 µM in experiment [9] and 3.34 µM in experiment [10].
`Nc1ccc(-c2ccc(N)cc2I)c(I)c1`: the GI50 is 5.1 µM in experiment [1]; 22.8 µM in experiment [2]; 15.9 µM in [3]; 16.3 µM in experiment [4]; 21.5 µM in [5]; 16.6 µM in experiment [6]. The GI50 in experiment [7] is 18.5 µM; in experiment [8], 10.7 µM; in experiment [9], 19.4 µM; in experiment [10], 17.5 µM. The TGI came to 39.8 µM in experiment [1]; 80.7 µM in experiment [2]; 37.4 µM in experiment [3]; 47.6 µM in experiment [4]; 53.8 µM in experiment [5]; 46.4 µM in [6]. Further, the TGI in experiment [7] was 59.1 µM; in experiment [8], 24.1 µM; in experiment [9], 39.3 µM; in [10], above 100 µM.
As for `O=C(OCCBr)c1ccc(Cl)c([N+](=O)[O-])c1`, the GI50 in experiment [1] was 7.9 µM; in experiment [2], above 51.1 µM; in [3], 16.3 µM; in [4], 5.23 µM; in experiment [5] it was 9.02 µM; in experiment [6], 8.3 µM. Besides, the GI50 in experiment [7] is 2.29 µM; in experiment [8] it was 17.7 µM; in experiment [9], 14.9 µM; in experiment [10], 10.2 µM. Besides, the TGI in experiment [1] is 31.5 µM; in experiment [2] it was above 86.8 µM; in experiment [3], 35.1 µM; in experiment [4], 12.8 µM; in experiment [5], 22.9 µM; in experiment [6], 21.6 µM. Further, the TGI came out at 5.49 µM in [7], 42.4 µM in experiment [8], 33.5 µM in experiment [9] and 23 µM in [10].
For the compound `Nc1nc(N)c(N=O)c(OCC2CCCCC2)n1`, the GI50 is 6.22 µM in experiment [1]; 15.9 µM in experiment [2]; 8.52 µM in [3]; 3.23 µM in experiment [4]; 17.2 µM in experiment [5]; 8.07 µM in experiment [6]. The GI50 in experiment [7] is 4.09 µM; in experiment [9], 8.93 µM; in experiment [10], 6.03 µM. The TGI in experiment [1] is > 85.9 µM and 27.4 µM; in experiment [2], 57 µM and 34.5 µM; in experiment [3], 32.8 µM and 24.6 µM; in [4] it was > 100 µM and 22.9 µM; in experiment [5], > 100 µM and 38.9 µM; in [6] it was 77.9 µM and > 31.4 µM. The TGI in [7] is > 58.6 µM and 23.9 µM; in experiment [8], 43 µM and 50.2 µM; in experiment [9], > 80.5 µM and 38.1 µM; in experiment [10], above 75.5 µM.
Turning to `CCN1C(=O)N(CC)C2C1NN=c1s/c(=C\c3cc4ccccc4[nH]3)c(=O)n12` (configuration not stated), the GI50 was below 0.01 µM in [1]; 2.11 µM in experiment [2]; below 0.015 µM in experiment [4]; 12.2 µM in experiment [5]; 0.0118 µM in experiment [6]; 0.0348 µM in experiment [7]. For the same compound, the GI50 is 0.0108 µM in [8], 0.0331 µM in [9] and below 0.0162 µM in [10]. Further, the TGI in experiment [2] is 32.3 µM; in experiment [3], 33.9 µM; in experiment [4], above 100 µM; in [5], above 100 µM; in [6], 27 µM; in experiment [7], 5.94 µM. The TGI in experiment [8] was 0.0628 µM; in experiment [9], 14.8 µM; in [10] it was above 100 µM.
